Source: US6239132A, “Thrombin inhibitors” (Merck & Co., Inc., priority 2000, dated 2001)

Target: human α-thrombin (Homo sapiens, UniProt P00734)
Assay: In vitro assay for determining proteinase inhibition: human α-thrombin
Assay type: biochemical
Conditions: 25° C., 0.05M TRIS buffer pH 7.4, 0.15M NaCl, 0.1% PEG; sar-PR-pna (or Z-GPR-afc for potent inhibitors); read-out: Inhibitory activity (Ki)
Description: Examples of this group are listed below in Table 1. […] Values are as determined according to the in vitro assay described later in the specification.
In Vitro Assay for Determining Proteinase Inhibition
Assays of human α-thrombin and human trypsin were performed by the methods substantially as described in Thrombosis Research, Issue No. 70, page 173 (1993) by S. D. Lewis et al.
The assays were carried out at 25° C. in 0.05M TRIS buffer pH 7.4, 0.15M NaCl, 0.1% PEG. Trypsin assays also contained 1 mM CaCl2.
Concentrations of stock solutions of Z-GPR-afc were determined from measurements of absorbance at 380 nm of the 7-amino-4-trifluoromethyl coumarin produced upon complete hydrolysis of an aliquot of the stock solution by thrombin.
Times required to achieve equilibration between enzyme and inhibitor were determined in control experiments. Initial velocities of product formation in the absence (Vo) or presence of inhibitor (Vi) were measured. Assuming competitive inhibition, and that unity is negligible compared Km /[S], […] (where [S], [I], and e respectively represent the total concentrations, of substrate, inhibitor and enzyme), the equilibrium constant (Ki) for dissociation of the inhibitor from the enzyme can be obtained from the dependence of Vo /Vi on [I] shown in equation 1: […]

| Compound | Ki |
| --- | --- |
| CCC1(CC)OC(=O)Nc2c1cc(C)n(CC(=O)NCc1ccc(N)nc1C)c2=O | < 0.1 µM |
| Cc1cc2c(c(=O)n1CC(=O)NCc1cc3cc[nH]c3cn1)NC(=O)OC2(C)C | < 0.1 µM |
| Cc1cc2c(c(=O)n1CC(=O)NCc1cccc(Cl)c1)NC(=O)OC2(C(C)C)C(C)C | < 0.1 µM |
| Cc1cc2c(c(=O)n1CC(=O)NCc1cc3cc[nH]c3cn1)NC(=O)OC2(CC1CC1)CC1CC1 | < 0.1 µM |
